Test results published in ChEMBL document CHEMBL4507310, “Data for DCP probe A-1211212” (2021).

How the values were obtained:
[1] = test system: ALK tyrosine kinase receptor (Homo sapiens), Q9UM73 [C1156Y]; conditions: Compound concentration 1000.0 nM
[2] = target: Mitogen-activated protein kinase 7 (Homo sapiens) (UniProt Q13164); conditions: Compound concentration 1000.0 nM
[3] = target: Endothelin-1 receptor (Homo sapiens) (UniProt P25101); experiment: ETA (h) Eurofins-Cerep binding assay; set-up: ligand concentration 0.03 nM; conditions: filed as agonist, Compound concentration 10.0 uM
[4] = target: Receptor tyrosine-protein kinase erbB-3 (Homo sapiens) (UniProt P21860); conditions: Compound concentration 1000.0 nM
[5] = target: Tumor necrosis factor (Homo sapiens) (UniProt P01375); experiment: TNF-alpha (h) Eurofins-Cerep binding assay; set-up: ligand concentration 0.1 nM; conditions: filed as agonist, Compound concentration 10.0 uM
[6] = test system: Tyrosine-protein kinase ABL1 (Homo sapiens), P00519 [F317I]; conditions: Compound concentration 1000.0 nM
[7] = target: Sodium-dependent noradrenaline transporter (Homo sapiens) (UniProt P23975); experiment: norepinephrine transporter (h) Eurofins-Cerep binding assay; set-up: ligand concentration 1 nM; conditions: filed as antagonist, Compound concentration 10.0 uM
[8] = target: Phosphatidylinositol 4,5-bisphosphate 3-kinase catalytic subunit gamma isoform (Homo sapiens) (UniProt P48736); conditions: Compound concentration 1000.0 nM
[9] = target: Myosin light chain kinase 2, skeletal/cardiac muscle (Homo sapiens) (UniProt Q9H1R3); conditions: Compound concentration 1000.0 nM
[10] = target: Tyrosine-protein kinase JAK2 (Homo sapiens) (UniProt O60674); conditions: Compound concentration 1000.0 nM
[11] = test system: Epidermal growth factor receptor (Homo sapiens), P00533 [L861Q]; conditions: Compound concentration 1000.0 nM
[12] = target: Myosin light chain kinase (Homo sapiens) (UniProt Q32MK0); conditions: Compound concentration 1000.0 nM
[13] = target: Serine/threonine-protein kinase PAK 1 (Homo sapiens) (UniProt Q13153); conditions: Compound concentration 1000.0 nM
[14] = target: Serine/threonine-protein kinase 26 (Homo sapiens) (UniProt Q9P289); conditions: Compound concentration 1000.0 nM
[15] = target: cAMP-dependent protein kinase catalytic subunit beta (Homo sapiens) (UniProt P22694); conditions: Compound concentration 1000.0 nM
[16] = target: Activin receptor type-2B (Homo sapiens) (UniProt Q13705); conditions: Compound concentration 1000.0 nM
[17] = target: Ribosomal protein S6 kinase alpha-3 (Homo sapiens) (UniProt P51812); conditions: Compound concentration 1000.0 nM
[18] = target: Atypical kinase COQ8A, mitochondrial (Homo sapiens) (UniProt Q8NI60); conditions: Compound concentration 1000.0 nM
[19] = target: Mitogen-activated protein kinase kinase kinase 11 (Homo sapiens) (UniProt Q16584); conditions: Compound concentration 1000.0 nM
[20] = target: Sigma non-opioid intracellular receptor 1 (Homo sapiens) (UniProt Q99720); experiment: sigma (non-selective) (h) Eurofins-Cerep binding assay; set-up: ligand concentration 10 nM; conditions: filed as agonist, Compound concentration 10.0 uM
[21] = target: Receptor tyrosine-protein kinase erbB-4 (Homo sapiens) (UniProt Q15303); conditions: Compound concentration 1000.0 nM
[22] = test system: Epidermal growth factor receptor (Homo sapiens), P00533 [UNDEFINED MUTATION]; conditions: Compound concentration 1000.0 nM
[23] = target: Glutamate NMDA receptor (Rattus norvegicus) (UniProt P35439+Q00959+Q00960+Q00961+Q62645+Q8VHN2+Q9R1M7); experiment: PCP Eurofins-Cerep binding assay; type: protein-complex assay; set-up: ligand concentration 10 nM; conditions: filed as antagonist, Compound concentration 10.0 uM
[24] = test system: Tyrosine-protein kinase ABL1 (Homo sapiens), P00519 [Q252H]; conditions: Compound concentration 1000.0 nM
[25] = test system: Mast/stem cell growth factor receptor Kit (Homo sapiens), P10721 [V559D,V654A]; conditions: Compound concentration 1000.0 nM
[26] = target: Dual specificity mitogen-activated protein kinase kinase 2 (Homo sapiens) (UniProt P36507); conditions: Compound concentration 1000.0 nM
[27] = target: NUAK family SNF1-like kinase 1 (Homo sapiens) (UniProt O60285); conditions: Compound concentration 1000.0 nM
[28] = target: Alpha-1A adrenergic receptor (Homo sapiens) (UniProt P35348); experiment: Alpha1A (h) Eurofins-Cerep binding assay; set-up: ligand concentration 0.1 nM; conditions: filed as antagonist, Compound concentration 10.0 uM
[29] = target: SRSF protein kinase 1 (Homo sapiens) (UniProt Q96SB4); conditions: Compound concentration 1000.0 nM
[30] = target: Tyrosine-protein kinase ITK/TSK (Homo sapiens) (UniProt Q08881); conditions: Compound concentration 1000.0 nM
[31] = target: Muscarinic acetylcholine receptor M3 (Homo sapiens) (UniProt P20309); experiment: M3 (h) Eurofins-Cerep binding assay; set-up: ligand concentration 0.2 nM; conditions: filed as antagonist, Compound concentration 10.0 uM
[32] = target: Serine/threonine-protein kinase/endoribonuclease IRE1 (Homo sapiens) (UniProt O75460); conditions: Compound concentration 1000.0 nM
[33] = target: Ribosomal protein S6 kinase alpha-6 (Homo sapiens) (UniProt Q9UK32); conditions: Compound concentration 1000.0 nM
[34] = test system: Tyrosine-protein kinase ABL1 (Homo sapiens), P00519 [H396P]; conditions: Compound concentration 1000.0 nM
[35] = target: Casein kinase I isoform epsilon (Homo sapiens) (UniProt P49674); conditions: Compound concentration 1000.0 nM
[36] = target: Cyclin-dependent kinase 18 (Homo sapiens) (UniProt Q07002); conditions: Compound concentration 1000.0 nM
[37] = target: Serine/threonine-protein kinase pim-1 (Homo sapiens) (UniProt P11309); conditions: Compound concentration 1000.0 nM
[38] = target: Ephrin type-B receptor 1 (Homo sapiens) (UniProt P54762); conditions: Compound concentration 1000.0 nM
[39] = target: Adenosine receptor A2b (Homo sapiens) (UniProt P29275); experiment: A2B (h) Eurofins-Cerep binding assay; set-up: ligand concentration 5 nM; conditions: filed as antagonist, Compound concentration 10.0 uM
[40] = target: ALK tyrosine kinase receptor (Homo sapiens) (UniProt Q9UM73); conditions: Compound concentration 1000.0 nM
[41] = test system: Tyrosine-protein kinase ABL1 (Homo sapiens), P00519 [F317L]; conditions: Compound concentration 1000.0 nM
[42] = target: Tyrosine-protein kinase ABL1 (Homo sapiens) (UniProt P00519); conditions: Compound concentration 1000.0 nM
[43] = test system: Phosphatidylinositol 4,5-bisphosphate 3-kinase catalytic subunit alpha isoform (Homo sapiens), P42336 [C420R]; conditions: Compound concentration 1000.0 nM
[44] = target: Peripheral plasma membrane protein CASK (Homo sapiens) (UniProt O14936); conditions: Compound concentration 1000.0 nM
[45] = target: Serine/threonine-protein kinase 38 (Homo sapiens) (UniProt Q15208); conditions: Compound concentration 1000.0 nM
Chain of Serine/threonine-protein kinase 38 (Homo sapiens) (Q15208 2-465 limits assumed): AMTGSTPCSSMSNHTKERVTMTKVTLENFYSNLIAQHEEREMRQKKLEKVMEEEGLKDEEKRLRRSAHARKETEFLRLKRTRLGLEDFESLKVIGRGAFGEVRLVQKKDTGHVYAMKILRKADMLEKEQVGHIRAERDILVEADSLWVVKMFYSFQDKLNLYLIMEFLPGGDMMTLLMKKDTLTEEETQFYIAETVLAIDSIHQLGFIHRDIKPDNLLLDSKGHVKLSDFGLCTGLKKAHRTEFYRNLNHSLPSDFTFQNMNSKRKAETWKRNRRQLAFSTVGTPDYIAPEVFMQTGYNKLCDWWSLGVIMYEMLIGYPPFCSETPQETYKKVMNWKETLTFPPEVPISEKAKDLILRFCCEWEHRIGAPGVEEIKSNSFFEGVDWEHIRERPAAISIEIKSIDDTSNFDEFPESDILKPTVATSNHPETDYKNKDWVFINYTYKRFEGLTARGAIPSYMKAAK

Chain of Ribosomal protein S6 kinase alpha-3 (Homo sapiens) (P51812 whole entry): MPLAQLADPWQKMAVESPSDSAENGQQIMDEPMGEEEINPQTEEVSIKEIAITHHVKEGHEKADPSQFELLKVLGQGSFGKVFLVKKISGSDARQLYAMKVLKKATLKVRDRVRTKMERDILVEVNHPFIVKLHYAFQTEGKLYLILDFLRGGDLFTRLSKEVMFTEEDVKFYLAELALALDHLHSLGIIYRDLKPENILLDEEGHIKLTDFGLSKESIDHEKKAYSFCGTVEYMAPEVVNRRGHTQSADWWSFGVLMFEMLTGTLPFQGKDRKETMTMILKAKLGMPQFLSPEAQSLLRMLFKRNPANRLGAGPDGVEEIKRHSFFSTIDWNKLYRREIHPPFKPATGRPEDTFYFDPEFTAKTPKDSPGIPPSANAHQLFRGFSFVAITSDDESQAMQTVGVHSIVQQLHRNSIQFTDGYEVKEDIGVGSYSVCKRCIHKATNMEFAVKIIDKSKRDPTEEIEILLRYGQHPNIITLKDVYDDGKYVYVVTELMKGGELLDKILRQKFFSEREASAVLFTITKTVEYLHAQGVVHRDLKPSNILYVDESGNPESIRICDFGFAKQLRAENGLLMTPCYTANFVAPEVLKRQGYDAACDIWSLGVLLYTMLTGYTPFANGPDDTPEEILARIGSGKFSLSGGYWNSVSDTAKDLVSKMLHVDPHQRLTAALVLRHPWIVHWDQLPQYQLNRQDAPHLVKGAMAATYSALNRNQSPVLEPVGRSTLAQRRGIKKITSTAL
Chain of Serine/threonine-protein kinase/endoribonuclease IRE1 (Homo sapiens) (O75460 19-977 limits assumed): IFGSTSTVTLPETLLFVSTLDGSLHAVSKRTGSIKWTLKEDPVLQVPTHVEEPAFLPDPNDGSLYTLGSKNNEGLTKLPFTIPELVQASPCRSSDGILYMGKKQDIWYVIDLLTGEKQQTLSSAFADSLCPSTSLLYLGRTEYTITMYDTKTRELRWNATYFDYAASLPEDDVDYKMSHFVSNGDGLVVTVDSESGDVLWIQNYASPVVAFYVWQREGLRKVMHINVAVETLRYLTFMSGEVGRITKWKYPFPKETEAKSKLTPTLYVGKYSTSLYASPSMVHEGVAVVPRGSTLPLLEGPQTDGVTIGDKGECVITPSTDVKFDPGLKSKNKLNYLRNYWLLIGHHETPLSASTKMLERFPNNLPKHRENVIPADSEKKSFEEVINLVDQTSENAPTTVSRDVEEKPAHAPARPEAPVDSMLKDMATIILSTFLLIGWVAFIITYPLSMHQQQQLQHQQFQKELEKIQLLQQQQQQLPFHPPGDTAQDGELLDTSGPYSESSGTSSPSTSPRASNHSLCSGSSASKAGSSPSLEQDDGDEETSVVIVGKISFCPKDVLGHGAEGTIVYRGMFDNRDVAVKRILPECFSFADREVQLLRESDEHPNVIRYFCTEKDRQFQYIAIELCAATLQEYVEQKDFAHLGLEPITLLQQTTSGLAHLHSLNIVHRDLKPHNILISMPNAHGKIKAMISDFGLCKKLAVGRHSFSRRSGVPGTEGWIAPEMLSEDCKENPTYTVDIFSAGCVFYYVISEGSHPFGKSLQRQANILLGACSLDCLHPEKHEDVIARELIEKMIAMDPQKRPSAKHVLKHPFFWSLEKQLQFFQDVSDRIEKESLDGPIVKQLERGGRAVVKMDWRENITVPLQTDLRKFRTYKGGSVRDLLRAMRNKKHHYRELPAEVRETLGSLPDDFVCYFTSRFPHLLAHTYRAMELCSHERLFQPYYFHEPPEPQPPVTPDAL
Chain of ALK tyrosine kinase receptor (Homo sapiens) (Q9UM73 19-1620 limits assumed): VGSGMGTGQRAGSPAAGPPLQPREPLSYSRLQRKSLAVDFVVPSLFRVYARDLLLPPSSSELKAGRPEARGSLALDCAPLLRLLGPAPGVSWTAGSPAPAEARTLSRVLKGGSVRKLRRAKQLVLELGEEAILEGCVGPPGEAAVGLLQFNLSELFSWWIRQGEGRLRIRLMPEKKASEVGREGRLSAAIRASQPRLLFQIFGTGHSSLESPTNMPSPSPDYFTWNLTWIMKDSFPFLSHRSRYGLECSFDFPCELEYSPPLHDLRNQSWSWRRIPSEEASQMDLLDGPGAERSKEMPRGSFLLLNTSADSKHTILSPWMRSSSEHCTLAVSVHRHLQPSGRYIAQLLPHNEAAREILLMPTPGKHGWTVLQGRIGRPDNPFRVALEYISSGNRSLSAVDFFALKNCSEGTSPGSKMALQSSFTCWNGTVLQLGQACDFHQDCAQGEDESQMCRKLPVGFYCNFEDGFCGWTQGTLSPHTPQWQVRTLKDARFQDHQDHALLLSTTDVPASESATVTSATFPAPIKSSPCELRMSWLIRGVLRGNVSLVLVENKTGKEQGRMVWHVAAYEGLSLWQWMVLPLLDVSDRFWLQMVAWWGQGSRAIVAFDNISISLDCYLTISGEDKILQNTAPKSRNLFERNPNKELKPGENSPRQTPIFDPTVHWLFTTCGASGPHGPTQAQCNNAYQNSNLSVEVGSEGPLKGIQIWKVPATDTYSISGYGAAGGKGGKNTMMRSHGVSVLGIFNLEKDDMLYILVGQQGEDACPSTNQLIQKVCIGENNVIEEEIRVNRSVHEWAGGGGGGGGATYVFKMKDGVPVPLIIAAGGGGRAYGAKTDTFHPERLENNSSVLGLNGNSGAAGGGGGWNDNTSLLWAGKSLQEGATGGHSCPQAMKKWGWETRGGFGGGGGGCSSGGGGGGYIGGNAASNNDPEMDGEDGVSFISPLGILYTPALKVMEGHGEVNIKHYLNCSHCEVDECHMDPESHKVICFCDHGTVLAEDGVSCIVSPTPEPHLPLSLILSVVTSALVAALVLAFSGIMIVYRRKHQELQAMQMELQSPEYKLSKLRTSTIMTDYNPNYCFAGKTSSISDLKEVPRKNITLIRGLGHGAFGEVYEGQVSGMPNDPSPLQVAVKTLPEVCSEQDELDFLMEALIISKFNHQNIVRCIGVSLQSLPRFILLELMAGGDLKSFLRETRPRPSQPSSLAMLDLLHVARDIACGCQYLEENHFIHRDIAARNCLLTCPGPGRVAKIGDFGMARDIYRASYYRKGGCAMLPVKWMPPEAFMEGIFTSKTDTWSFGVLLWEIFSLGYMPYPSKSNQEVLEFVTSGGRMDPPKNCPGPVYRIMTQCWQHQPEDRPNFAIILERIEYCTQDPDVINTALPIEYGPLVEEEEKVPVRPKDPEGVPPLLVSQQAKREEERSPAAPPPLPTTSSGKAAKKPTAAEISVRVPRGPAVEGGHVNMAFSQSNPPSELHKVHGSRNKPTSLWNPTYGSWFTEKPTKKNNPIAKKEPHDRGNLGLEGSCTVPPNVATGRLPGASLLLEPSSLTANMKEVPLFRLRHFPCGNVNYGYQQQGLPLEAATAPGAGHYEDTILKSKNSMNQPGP
Chain of Adenosine receptor A2b (Homo sapiens) (P29275 whole entry): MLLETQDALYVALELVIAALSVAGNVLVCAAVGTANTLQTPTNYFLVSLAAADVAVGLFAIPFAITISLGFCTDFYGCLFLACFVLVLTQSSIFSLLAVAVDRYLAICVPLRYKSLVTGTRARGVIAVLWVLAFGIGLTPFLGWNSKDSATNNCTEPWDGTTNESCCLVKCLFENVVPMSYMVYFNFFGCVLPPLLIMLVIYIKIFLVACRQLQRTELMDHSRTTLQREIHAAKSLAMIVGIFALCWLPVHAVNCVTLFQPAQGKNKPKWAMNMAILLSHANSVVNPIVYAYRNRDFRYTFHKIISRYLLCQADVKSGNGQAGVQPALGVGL
Chain of Atypical kinase COQ8A, mitochondrial (Homo sapiens) (Q8NI60 163-647 limits assumed): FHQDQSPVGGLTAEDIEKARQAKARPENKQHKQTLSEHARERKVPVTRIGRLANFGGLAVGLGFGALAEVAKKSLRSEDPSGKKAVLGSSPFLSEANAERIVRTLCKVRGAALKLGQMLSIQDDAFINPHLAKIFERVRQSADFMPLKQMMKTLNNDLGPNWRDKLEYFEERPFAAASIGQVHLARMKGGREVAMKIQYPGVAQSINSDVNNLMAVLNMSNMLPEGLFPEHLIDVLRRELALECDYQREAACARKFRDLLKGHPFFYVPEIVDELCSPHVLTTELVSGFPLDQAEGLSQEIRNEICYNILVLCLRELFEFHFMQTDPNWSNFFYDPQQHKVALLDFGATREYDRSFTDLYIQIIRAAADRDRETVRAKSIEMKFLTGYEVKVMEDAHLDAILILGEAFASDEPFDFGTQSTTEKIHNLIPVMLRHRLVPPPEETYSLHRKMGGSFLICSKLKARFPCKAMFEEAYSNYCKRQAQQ
Chain of Dual specificity mitogen-activated protein kinase kinase 2 (Homo sapiens) (P36507 whole entry): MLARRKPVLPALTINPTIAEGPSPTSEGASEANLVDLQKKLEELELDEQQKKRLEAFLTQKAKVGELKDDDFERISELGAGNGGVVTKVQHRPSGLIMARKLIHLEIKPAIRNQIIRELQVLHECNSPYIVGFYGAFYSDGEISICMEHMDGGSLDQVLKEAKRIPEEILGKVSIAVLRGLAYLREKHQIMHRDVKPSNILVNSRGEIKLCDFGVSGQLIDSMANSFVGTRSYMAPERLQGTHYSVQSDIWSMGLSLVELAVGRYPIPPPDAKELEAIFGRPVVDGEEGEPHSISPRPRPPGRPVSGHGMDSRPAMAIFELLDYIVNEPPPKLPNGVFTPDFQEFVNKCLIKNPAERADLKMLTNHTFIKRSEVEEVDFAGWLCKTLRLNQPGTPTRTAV

O=C(NS(=O)(=O)c1ccc(NCC2CCOCC2)c([N+](=O)[O-])c1)c1ccc(N2CCN(Cc3ccc(C(F)(F)F)cc3-c3ccc(Cl)cc3)CC2)cc1Oc1cnc2[nH]ccc2c1 [A-1210227]
residual activity [1]: 100%
residual activity [2]: 100%
% Inhibition of Control Specific Binding (Mean n=2) [3]: -7.6%
residual activity [4]: 100%
% Inhibition of Control Specific Binding (Mean n=2) [5]: -42%
residual activity [6]: 100%
% Inhibition of Control Specific Binding (Mean n=2) [7]: -14.5%
residual activity [8]: 86%
residual activity [9]: 77%
residual activity [10]: 90%
residual activity [11]: 93%
residual activity [12]: 100%
residual activity [13]: 100%
residual activity [14]: 72%
residual activity [15]: 91%
residual activity [16]: 94%
residual activity [17]: 100%
residual activity [18]: 100%
residual activity [19]: 91%
% Inhibition of Control Specific Binding (Mean n=2) [20]: -104%
residual activity [21]: 100%
residual activity [22]: 96%
% Inhibition of Control Specific Binding (Mean n=2) [23]: 19.2%
residual activity [24]: 100%
residual activity [25]: 100%
residual activity [26]: 100%
residual activity [27]: 98%
% Inhibition of Control Specific Binding (Mean n=2) [28]: -5.1%
residual activity [29]: 100%
residual activity [30]: 100%
% Inhibition of Control Specific Binding (Mean n=2) [31]: 8.9%
residual activity [32]: 90%
residual activity [33]: 100%
residual activity [34]: 92%
residual activity [35]: 95%
residual activity [36]: 100%
residual activity [37]: 92%
residual activity [38]: 100%
% Inhibition of Control Specific Binding (Mean n=2) [39]: -10.1%
residual activity [40]: 94%
residual activity [41]: 100%
residual activity [42]: 100%
residual activity [43]: 81%
residual activity [44]: 80%
residual activity [45]: 90%

CO[C@H]1CC[C@H](CNc2ccc(S(=O)(=O)NC(=O)c3ccc(N4CCN(CC5=C(c6ccc(Cl)cc6)CC(C)(C)CC5)CC4)cc3Oc3cnc4[nH]ccc4c3)cc2[N+](=O)[O-])CC1 [A-1211212]
residual activity [1]: 100%
residual activity [2]: 88%
% Inhibition of Control Specific Binding (Mean n=2) [3]: 2.5%
residual activity [4]: 100%
% Inhibition of Control Specific Binding (Mean n=2) [5]: -20.3%
residual activity [6]: 100%
% Inhibition of Control Specific Binding (Mean n=2) [7]: 16.2%
residual activity [8]: 86%
residual activity [9]: 66%
residual activity [10]: 89%
residual activity [11]: 70%
residual activity [12]: 100%
residual activity [13]: 78%
residual activity [14]: 97%
residual activity [15]: 88%
residual activity [16]: 95%
residual activity [17]: 71%
residual activity [18]: 99%
residual activity [19]: 74%
% Inhibition of Control Specific Binding (Mean n=2) [20]: 22.4%
residual activity [21]: 80%
residual activity [22]: 100%
% Inhibition of Control Specific Binding (Mean n=2) [23]: 1.9%
residual activity [24]: 81%
residual activity [25]: 93%
residual activity [26]: 100%
residual activity [27]: 100%
% Inhibition of Control Specific Binding (Mean n=2) [28]: -3.8%
residual activity [29]: 96%
residual activity [30]: 87%
% Inhibition of Control Specific Binding (Mean n=2) [31]: 10.3%
residual activity [32]: 89%
residual activity [33]: 67%
residual activity [34]: 94%
residual activity [35]: 88%
residual activity [36]: 100%
residual activity [37]: 72%
residual activity [38]: 84%
% Inhibition of Control Specific Binding (Mean n=2) [39]: -36.3%
residual activity [40]: 100%
residual activity [41]: 83%
residual activity [42]: 71%
residual activity [43]: 75%
residual activity [44]: 100%
residual activity [45]: 98%
